How the values were obtained:
[1] = system: Tyrosine-protein kinase ABL1 (Homo sapiens), P00519 [Q252H]; details: Compound concentration 1000.0 nM
[2] = molecular target: T1, Tyrosine-protein kinase ZAP-70 (Homo sapiens) (UniProt P43403); details: Compound concentration 1000.0 nM
T1 sequence (whole entry): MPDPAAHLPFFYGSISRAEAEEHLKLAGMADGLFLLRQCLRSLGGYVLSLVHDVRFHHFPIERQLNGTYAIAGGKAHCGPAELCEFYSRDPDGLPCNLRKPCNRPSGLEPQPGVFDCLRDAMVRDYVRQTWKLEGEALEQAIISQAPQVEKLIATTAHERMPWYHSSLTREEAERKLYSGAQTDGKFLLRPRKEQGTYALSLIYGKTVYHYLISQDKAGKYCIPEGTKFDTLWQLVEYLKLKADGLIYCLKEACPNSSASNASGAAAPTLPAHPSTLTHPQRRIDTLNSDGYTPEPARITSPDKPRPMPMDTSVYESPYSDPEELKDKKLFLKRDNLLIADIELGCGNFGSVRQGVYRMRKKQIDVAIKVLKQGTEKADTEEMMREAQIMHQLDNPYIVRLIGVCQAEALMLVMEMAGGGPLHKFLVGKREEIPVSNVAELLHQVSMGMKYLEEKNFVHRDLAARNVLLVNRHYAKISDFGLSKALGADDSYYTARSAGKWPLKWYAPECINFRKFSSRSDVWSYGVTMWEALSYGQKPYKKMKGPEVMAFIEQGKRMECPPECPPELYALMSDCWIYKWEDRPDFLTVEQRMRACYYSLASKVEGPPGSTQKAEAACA

[3] = molecular target: Cyclin-dependent kinase 7 (Homo sapiens) (UniProt P50613); details: Compound concentration 1000.0 nM
[4] = molecular target: Ephrin type-A receptor 2 (Homo sapiens) (UniProt P29317); details: Compound concentration 1000.0 nM
[5] = system: Mast/stem cell growth factor receptor Kit (Homo sapiens), P10721 [D816V]; details: Compound concentration 1000.0 nM
[6] = molecular target: Serine/threonine-protein kinase Nek4 (Homo sapiens) (UniProt P51957); details: Compound concentration 1000.0 nM
[7] = molecular target: Sodium-dependent noradrenaline transporter (Homo sapiens) (UniProt P23975); details: Compound concentration 10.0 uM
[8] = molecular target: Leucine-rich repeat serine/threonine-protein kinase 2 (Homo sapiens) (UniProt Q5S007); details: Compound concentration 1000.0 nM
[9] = molecular target: Mitogen-activated protein kinase kinase kinase kinase 1 (Homo sapiens) (UniProt Q92918); details: Compound concentration 1000.0 nM
[10] = molecular target: Glycogen synthase kinase-3 beta (Homo sapiens) (UniProt P49841); details: Compound concentration 1000.0 nM
[11] = molecular target: BDNF/NT-3 growth factors receptor (Homo sapiens) (UniProt Q16620); details: Compound concentration 1000.0 nM
[12] = system: Mast/stem cell growth factor receptor Kit (Homo sapiens), P10721 [D816H]; details: Compound concentration 1000.0 nM
[13] = molecular target: Protein-tyrosine kinase 6 (Homo sapiens) (UniProt Q13882); details: Compound concentration 1000.0 nM
[14] = molecular target: Non-receptor tyrosine-protein kinase TYK2 (Homo sapiens) (UniProt P29597); details: Compound concentration 1000.0 nM
[15] = molecular target: Dual specificity tyrosine-phosphorylation-regulated kinase 1B (Homo sapiens) (UniProt Q9Y463); details: Compound concentration 1000.0 nM
[16] = molecular target: Serine/threonine-protein kinase 38-like (Homo sapiens) (UniProt Q9Y2H1); details: Compound concentration 1000.0 nM
[17] = molecular target: T2, Serine/threonine-protein kinase 17A (Homo sapiens) (UniProt Q9UEE5); details: Compound concentration 1000.0 nM
T2 sequence (whole entry): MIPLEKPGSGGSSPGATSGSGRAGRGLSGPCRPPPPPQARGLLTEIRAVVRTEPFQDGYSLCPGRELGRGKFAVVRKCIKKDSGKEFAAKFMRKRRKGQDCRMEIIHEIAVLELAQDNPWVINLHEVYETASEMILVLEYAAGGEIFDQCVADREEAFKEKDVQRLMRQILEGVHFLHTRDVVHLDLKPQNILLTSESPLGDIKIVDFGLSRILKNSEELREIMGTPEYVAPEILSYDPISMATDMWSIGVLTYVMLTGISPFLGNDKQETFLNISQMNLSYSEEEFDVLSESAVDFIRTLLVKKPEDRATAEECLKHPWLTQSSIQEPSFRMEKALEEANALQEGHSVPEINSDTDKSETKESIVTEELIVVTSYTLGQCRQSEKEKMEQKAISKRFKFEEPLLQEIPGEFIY

[18] = molecular target: Mitogen-activated protein kinase kinase kinase 6 (Homo sapiens) (UniProt O95382); details: Compound concentration 1000.0 nM
[19] = system: Phosphatidylinositol 4,5-bisphosphate 3-kinase catalytic subunit alpha isoform (Homo sapiens), P42336 [M1043I]; details: Compound concentration 1000.0 nM
[20] = molecular target: Serine/threonine-protein kinase RIO1 (Homo sapiens) (UniProt Q9BRS2); details: Compound concentration 1000.0 nM
[21] = molecular target: Myosin light chain kinase family member 4 (Homo sapiens) (UniProt Q86YV6); details: Compound concentration 1000.0 nM
[22] = molecular target: Serine/threonine-protein kinase/endoribonuclease IRE1 (Homo sapiens) (UniProt O75460); details: Compound concentration 1000.0 nM
[23] = molecular target: Mitogen-activated protein kinase 7 (Homo sapiens) (UniProt Q13164); details: Compound concentration 1000.0 nM
[24] = molecular target: Transient receptor potential cation channel subfamily M member 6 (Homo sapiens) (UniProt Q9BX84); details: Compound concentration 1000.0 nM
[25] = molecular target: Tyrosine-protein kinase HCK (Homo sapiens) (UniProt P08631); details: Compound concentration 1000.0 nM
[26] = molecular target: Aurora kinase B (Homo sapiens) (UniProt Q96GD4); details: Compound concentration 1000.0 nM
[27] = molecular target: Serine/threonine-protein kinase ICK (Homo sapiens) (UniProt Q9UPZ9); details: Compound concentration 1000.0 nM
[28] = molecular target: Serine/threonine-protein kinase 25 (Homo sapiens) (UniProt O00506); details: Compound concentration 1000.0 nM
[29] = molecular target: Calcium/calmodulin-dependent protein kinase type II subunit alpha (Homo sapiens) (UniProt Q9UQM7); details: Compound concentration 1000.0 nM
[30] = molecular target: RAF proto-oncogene serine/threonine-protein kinase (Homo sapiens) (UniProt P04049); details: Compound concentration 1000.0 nM
[31] = molecular target: Serine/threonine-protein kinase TBK1 (Homo sapiens) (UniProt Q9UHD2); details: Compound concentration 1000.0 nM
Serine/threonine-protein kinase TBK1 (Homo sapiens), sequence (Q9UHD2 whole entry): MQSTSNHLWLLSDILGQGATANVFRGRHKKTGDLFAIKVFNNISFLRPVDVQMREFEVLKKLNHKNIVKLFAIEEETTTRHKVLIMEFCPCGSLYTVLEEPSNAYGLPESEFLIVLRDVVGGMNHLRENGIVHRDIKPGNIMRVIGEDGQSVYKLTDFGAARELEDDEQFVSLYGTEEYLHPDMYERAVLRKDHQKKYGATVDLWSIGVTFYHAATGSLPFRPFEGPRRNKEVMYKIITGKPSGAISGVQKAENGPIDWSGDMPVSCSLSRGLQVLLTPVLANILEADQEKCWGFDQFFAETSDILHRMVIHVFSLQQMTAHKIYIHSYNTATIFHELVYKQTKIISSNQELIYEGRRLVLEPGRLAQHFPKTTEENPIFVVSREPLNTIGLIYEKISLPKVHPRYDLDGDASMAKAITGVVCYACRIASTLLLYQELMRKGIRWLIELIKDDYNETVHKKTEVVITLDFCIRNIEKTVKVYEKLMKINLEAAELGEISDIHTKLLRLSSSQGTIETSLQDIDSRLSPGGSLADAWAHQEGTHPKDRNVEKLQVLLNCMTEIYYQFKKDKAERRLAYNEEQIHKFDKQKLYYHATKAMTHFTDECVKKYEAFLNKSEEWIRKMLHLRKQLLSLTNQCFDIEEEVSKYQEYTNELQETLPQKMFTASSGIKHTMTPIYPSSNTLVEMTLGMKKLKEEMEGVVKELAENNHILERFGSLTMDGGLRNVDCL

Mitogen-activated protein kinase 7 (Homo sapiens), sequence (Q13164 2-816 limits assumed): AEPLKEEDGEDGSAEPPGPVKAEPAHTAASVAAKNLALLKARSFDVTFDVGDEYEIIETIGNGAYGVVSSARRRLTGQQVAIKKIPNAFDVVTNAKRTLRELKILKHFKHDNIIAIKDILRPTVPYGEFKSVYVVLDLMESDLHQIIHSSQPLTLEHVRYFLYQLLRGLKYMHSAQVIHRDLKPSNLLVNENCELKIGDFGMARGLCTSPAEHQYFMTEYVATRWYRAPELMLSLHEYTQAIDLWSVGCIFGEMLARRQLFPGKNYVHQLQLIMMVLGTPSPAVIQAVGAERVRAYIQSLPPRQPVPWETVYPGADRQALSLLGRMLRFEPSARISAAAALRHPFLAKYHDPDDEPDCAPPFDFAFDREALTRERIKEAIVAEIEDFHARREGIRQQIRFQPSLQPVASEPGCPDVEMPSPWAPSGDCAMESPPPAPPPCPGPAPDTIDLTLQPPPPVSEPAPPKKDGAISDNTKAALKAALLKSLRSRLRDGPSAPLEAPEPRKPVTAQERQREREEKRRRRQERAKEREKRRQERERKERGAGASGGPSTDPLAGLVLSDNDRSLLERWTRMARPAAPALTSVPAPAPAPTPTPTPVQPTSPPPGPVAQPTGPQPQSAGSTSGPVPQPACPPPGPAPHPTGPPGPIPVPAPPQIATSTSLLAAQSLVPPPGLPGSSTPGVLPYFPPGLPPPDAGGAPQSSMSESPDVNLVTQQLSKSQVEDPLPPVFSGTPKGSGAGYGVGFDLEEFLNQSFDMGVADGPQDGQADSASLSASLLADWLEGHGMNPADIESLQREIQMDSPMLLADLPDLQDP
Myosin light chain kinase family member 4 (Homo sapiens), sequence (Q86YV6 whole entry): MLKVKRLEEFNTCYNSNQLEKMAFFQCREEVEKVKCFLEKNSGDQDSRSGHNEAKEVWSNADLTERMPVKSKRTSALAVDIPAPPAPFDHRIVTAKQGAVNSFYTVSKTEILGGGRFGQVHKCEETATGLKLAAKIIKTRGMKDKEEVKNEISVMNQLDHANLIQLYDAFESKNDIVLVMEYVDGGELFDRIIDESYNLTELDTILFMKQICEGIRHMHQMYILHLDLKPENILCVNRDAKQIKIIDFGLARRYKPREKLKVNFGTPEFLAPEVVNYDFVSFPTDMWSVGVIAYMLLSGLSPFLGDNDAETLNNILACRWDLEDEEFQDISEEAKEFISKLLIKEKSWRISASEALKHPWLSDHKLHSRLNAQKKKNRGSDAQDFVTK
Non-receptor tyrosine-protein kinase TYK2 (Homo sapiens), sequence (P29597 whole entry): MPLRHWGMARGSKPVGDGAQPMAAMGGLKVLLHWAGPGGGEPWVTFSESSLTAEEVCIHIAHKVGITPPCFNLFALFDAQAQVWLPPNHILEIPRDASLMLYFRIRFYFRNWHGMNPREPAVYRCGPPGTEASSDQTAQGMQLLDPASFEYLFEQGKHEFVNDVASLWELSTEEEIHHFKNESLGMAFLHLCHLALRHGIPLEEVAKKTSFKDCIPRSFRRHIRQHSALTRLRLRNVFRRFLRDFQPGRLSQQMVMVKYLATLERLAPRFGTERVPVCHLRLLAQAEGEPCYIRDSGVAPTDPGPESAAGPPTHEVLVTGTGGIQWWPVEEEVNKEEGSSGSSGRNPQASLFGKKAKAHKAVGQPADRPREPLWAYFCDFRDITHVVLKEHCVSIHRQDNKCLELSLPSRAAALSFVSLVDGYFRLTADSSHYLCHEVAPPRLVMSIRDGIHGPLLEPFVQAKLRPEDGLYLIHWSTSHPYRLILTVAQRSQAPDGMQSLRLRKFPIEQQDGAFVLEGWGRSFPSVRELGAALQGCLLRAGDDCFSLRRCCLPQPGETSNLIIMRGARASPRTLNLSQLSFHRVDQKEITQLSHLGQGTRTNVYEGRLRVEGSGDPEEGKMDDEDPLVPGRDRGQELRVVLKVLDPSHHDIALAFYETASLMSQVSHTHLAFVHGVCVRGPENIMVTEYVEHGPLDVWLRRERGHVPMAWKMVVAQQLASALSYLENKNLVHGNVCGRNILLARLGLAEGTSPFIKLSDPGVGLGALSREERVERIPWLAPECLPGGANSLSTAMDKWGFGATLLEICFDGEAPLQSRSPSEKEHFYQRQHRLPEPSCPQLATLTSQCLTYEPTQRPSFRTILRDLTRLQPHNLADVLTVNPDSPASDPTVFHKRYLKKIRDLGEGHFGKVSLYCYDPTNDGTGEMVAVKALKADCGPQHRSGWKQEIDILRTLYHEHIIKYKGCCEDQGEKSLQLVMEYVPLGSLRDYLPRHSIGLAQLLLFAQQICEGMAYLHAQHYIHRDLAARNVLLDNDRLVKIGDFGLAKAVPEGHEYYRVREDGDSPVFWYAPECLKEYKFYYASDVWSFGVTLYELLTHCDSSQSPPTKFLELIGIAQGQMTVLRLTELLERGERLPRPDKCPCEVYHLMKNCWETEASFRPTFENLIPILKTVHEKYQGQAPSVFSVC
Sodium-dependent noradrenaline transporter (Homo sapiens), sequence (P23975 whole entry): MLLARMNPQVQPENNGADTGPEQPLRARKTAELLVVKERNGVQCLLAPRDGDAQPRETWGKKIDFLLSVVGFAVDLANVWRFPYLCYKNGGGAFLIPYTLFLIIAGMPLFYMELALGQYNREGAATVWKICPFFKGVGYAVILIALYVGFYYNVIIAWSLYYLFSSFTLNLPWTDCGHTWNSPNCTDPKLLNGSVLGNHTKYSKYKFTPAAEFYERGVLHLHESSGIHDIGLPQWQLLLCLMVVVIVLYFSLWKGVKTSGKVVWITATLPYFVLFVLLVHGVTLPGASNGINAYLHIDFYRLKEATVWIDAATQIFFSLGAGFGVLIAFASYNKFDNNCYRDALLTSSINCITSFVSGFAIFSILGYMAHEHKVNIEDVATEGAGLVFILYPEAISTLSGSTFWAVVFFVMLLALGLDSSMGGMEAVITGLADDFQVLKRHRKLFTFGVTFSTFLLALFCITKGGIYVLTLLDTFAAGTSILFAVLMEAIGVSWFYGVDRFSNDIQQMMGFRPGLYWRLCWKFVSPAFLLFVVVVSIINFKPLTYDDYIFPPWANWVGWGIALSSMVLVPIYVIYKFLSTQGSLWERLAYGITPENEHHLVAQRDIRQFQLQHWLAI
Mitogen-activated protein kinase kinase kinase 6 (Homo sapiens), sequence (O95382 whole entry, canonical isoform): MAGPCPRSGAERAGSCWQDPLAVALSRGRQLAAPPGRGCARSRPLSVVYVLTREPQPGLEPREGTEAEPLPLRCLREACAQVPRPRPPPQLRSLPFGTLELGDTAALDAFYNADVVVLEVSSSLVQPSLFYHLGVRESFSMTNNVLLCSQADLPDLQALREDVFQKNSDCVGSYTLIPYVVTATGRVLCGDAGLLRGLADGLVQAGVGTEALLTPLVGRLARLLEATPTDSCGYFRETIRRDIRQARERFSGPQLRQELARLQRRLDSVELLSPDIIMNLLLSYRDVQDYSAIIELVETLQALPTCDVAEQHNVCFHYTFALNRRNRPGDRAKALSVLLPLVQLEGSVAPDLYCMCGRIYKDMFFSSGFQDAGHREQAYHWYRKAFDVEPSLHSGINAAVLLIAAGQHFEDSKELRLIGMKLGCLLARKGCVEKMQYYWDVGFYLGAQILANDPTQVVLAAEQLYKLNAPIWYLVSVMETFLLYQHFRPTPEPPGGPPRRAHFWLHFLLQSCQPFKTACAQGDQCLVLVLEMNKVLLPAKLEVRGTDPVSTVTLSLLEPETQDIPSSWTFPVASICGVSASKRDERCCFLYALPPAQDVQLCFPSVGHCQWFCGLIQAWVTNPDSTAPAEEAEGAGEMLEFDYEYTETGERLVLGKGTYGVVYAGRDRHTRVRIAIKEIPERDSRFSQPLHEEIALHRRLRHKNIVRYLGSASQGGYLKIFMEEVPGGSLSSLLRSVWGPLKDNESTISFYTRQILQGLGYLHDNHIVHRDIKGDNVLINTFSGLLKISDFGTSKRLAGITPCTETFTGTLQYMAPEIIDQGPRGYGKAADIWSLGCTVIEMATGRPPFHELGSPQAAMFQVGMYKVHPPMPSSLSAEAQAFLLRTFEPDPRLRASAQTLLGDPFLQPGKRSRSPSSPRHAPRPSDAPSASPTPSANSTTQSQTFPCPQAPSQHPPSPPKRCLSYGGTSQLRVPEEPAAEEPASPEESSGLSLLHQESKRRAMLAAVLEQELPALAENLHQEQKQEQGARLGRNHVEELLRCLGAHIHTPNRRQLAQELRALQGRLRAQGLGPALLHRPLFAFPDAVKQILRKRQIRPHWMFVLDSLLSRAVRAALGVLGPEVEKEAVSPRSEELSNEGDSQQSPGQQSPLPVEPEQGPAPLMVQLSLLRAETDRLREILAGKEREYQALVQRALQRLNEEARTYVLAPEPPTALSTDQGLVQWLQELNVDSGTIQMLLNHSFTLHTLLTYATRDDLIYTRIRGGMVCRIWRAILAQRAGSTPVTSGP

CN(C)C(=O)Cn1cc(-c2nc(C3(c4ccc(-c5cnc(N)nc5)cc4)CC3)no2)cn1 [BI 0153]
inactive: residual activity [1] 100% | residual activity [2] 94% | residual activity [3] 72% | residual activity [4] 89% | residual activity [5] 92% | residual activity [6] 95% | inhibition [7] 8.33% | residual activity [8] 100% | residual activity [9] 81% | residual activity [10] 81% | residual activity [11] 100% | residual activity [12] 85% | residual activity [13] 100% | residual activity [14] 90% | residual activity [15] 66% | residual activity [16] 81% | residual activity [17] 100% | residual activity [18] 78% | residual activity [19] 100% | residual activity [20] 100% | residual activity [21] 100% | residual activity [22] 69% | residual activity [23] 97% | residual activity [24] 86% | residual activity [25] 100% | residual activity [27] 76% | residual activity [28] 100% | residual activity [29] 100% | residual activity [30] 100% | residual activity [31] 87%
active: residual activity [26] 41%

CN(C)C(=O)Cn1cc(-c2nc([C@@](C)(c3ccc(-c4cnc(N)nc4)cc3)C3CC3)no2)cn1 [BI 665915]
inactive: residual activity [1] 83% | residual activity [2] 100% | residual activity [3] 59% | residual activity [4] 100% | residual activity [5] 94% | residual activity [6] 88% | inhibition [7] 18.9% | residual activity [8] 74% | residual activity [9] 100% | residual activity [10] 100% | residual activity [11] 81% | residual activity [12] 100% | residual activity [13] 100% | residual activity [14] 65% | residual activity [15] 98% | residual activity [16] 91% | residual activity [17] 100% | residual activity [18] 90% | residual activity [19] 100% | residual activity [20] 100% | residual activity [21] 100% | residual activity [22] 86% | residual activity [23] 90% | residual activity [24] 78% | residual activity [25] 79% | residual activity [26] 96% | residual activity [27] 100% | residual activity [28] 100% | residual activity [29] 96% | residual activity [30] 100% | residual activity [31] 85%

Reference: ChEMBL document CHEMBL4507276 (2021)
